Measurements as given in BindingDB's records for doi:10.1021/jm501113m (Duquesne University, 2014).

Assays:
[1] = Inhibition of FRalpha (unknown origin) expressed in Chinese hamster RT16 cells assessed as cell growth inhibition incubated up to 96 hrs by Celltiter-blue cell viability assay
[2] = Inhibition of FRbeta (unknown origin) expressed in Chinese hamster D4 cells assessed as cell growth inhibition incubated up to 96 hrs by Celltiter-blue cell viability assay
[3] = Inhibition of FRalpha (unknown origin) expressed in Chinese hamster RT16 cells assessed as cell growth inhibition incubated up to 96 hrs in presence of 200 nM folic acid by Celltiter-blue cell viability assay
[4] = Inhibition of FRbeta (unknown origin) expressed in Chinese hamster D4 cells assessed as cell growth inhibition incubated up to 96 hrs in presence of 200 nM folic acid by Celltiter-blue cell viability assay
[5] = Inhibition of RFC (unknown origin) expressed in Chinese hamster PC43-10 cells assessed as cell growth inhibition incubated up to 96 hrs by Celltiter-blue cell viability assay
[6] = Inhibition of PCFT (unknown origin) expressed in Chinese hamster R2/PCFT4 cells assessed as cell growth inhibition incubated up to 96 hrs by Celltiter-blue cell viability assay

Row | SMILES | IC50 [1] [nM] | IC50 [2] [nM] | IC50 [3] [nM] | IC50 [4] [nM] | IC50 [5] [nM] | IC50 [6] [nM]
1 | Nc1nc2[nH]c(CCCc3ccc(C(=O)N[C@@H](CCCC(=O)O)C(=O)O)s3)cc2c(=O)[nH]1 | 9.5 | 3.6 | > 1000 | > 1000 | > 1000 | > 1000
2 | CCC[C@H](NC(=O)c1ccc(CCCc2cc3c(=O)[nH]c(N)nc3[nH]2)s1)C(=O)O | 56 | > 1000 | > 1000 | > 1000 | > 1000 | > 1000
3 | Nc1nc2[nH]c(CCCc3ccc(C(=O)NCCCC(=O)O)s3)cc2c(=O)[nH]1 | 27 | > 1000 | > 1000 | > 1000 | > 1000 | > 1000
4 | Nc1nc2[nH]c(CCCc3ccc(C(=O)N[C@@H](CC(=O)O)C(=O)O)s3)cc2c(=O)[nH]1 | 6.6 | 347 | > 1000 | > 1000 | > 1000 | > 1000
5 | Nc1nc2[nH]c(CCCc3ccc(C(=O)O)s3)cc2c(=O)[nH]1 | 661 | > 1000 | > 1000 | > 1000 | > 1000 | > 1000
